Drawing on patent publication US9693563B2, “Boron-silane polyether complex” (3M INNOVATIVE PROPERTIES COMPANY, priority 2013, dated 2017), this text covers Conductivity and pH for 1 compound.

The data set can be described thus: Electrical conductivity of borax, silane polyether and borax-SPE complex solutions. In kind it is physicochemical. As to conditions: for Conductivity: 25° C., 20 ml solution. As to the method: Electrical conductivity is an effective quantitative tool to study complex formation in water for the system of a weak acid and a weak base. In the current study, the silane polyether acts as the weak acid (pH around 6) and borax acts as the weak base (pH around 9). The following analyses were carried out at 25° C. using a 20 ml solution of borax or SPE-1. Conductivity was measure at 45 minutes (immediately after complexation). The results are reported in Table 4a in units of microSiemens per centimeter (μS/cm).
The electrical conductivity of 0.025 M solutions of borax-SPE complex were prepared at various molar ratios of borax to silane polyether (B:S). The following analyses were carried out at 25° C. using a 20 ml solution. Conductivity was measure at 45 minutes and again after 24 hours to assess the stability of the complex.

For the compound `O=BOB(O)OB(O)OB=O` [Borax, borax (Na2B4O7.10H2O)], the Conductivity is recorded as 133 μS/cm (0.0005M); 260 μS/cm (0.001M); 853 μS/cm (0.005M); 1225 μS/cm (0.01M); 4530 μS/cm (0.05M); 9000 μS/cm (0.1M). Moreover, where the note is “weak acid / weak base in water”, the pH entry is “around 9”.
